{"source": "patent US20250387298A1", "about": "“FLEXIBLE MEDICAL CONTAINER” (B. Braun Melsungen AG, priority 2024, published 2025)", "assay": "Simulating experiments: Pip-Taz powder incubated with potential impurities in glass vials, turbidity after reconstitution", "format": "physicochemical", "experimental": "In order to mimic and evaluate the impact of Ti, Al, Sn, Ni, Mg, Cr, and Si containing impurities on the turbidity of piperacillin and tazobactam formation, the following simulating experiments were carried out (reference 6.7, Notebook BB5254/125, 134, 140-141, 145-146). Powders of piperacillin and tazobactam were mixed with different potential impurities in glass vials and incubated at 40° C. for 3 weeks. […] [table]", "key": {"[1]": {"conditions": "40° C. for 3 weeks in glass vial, 0.3 g Pip-Taz with 1-2 mg chemical, reconstituted in 12 mL 0.9% NaCl"}, "[2]": {"conditions": "40° C. for 3 weeks, chemical without drug, 0.9% NaCl"}, "[3]": {"conditions": "Drug & Chemicals minus Chemical only, 40° C. for 3 weeks"}, "[4]": {"conditions": "conclusion from Table 2, by metal/element of the impurity"}}, "note": "Read-outs that look alike come from different tables or passages of the source. Marks after values point to notes of the source that are not given here.", "data": [{"compound": "O[Si](O)(O)C1CCCCC1", "note": "[Cyclohexyl-dihydroxyl-hydroxylsilane]", "values": [{"measurement": "Turbidity, Drug & Chemicals (Target Mole Ratio = 100:1, ~100 ppm for chemicals)", "setting": "[1]", "value": 18.20}, {"measurement": "Turbidity, Chemical only (~100 ppm)", "setting": "[2]", "value": 0.54}, {"measurement": "Turbidity Delta", "setting": "[3]", "value": 17.66}, {"measurement": "impact on the turbidity of piperacillin and tazobactam", "setting": "[4]", "value": "substantial effect"}]}, {"compound": "O.O.O.O.O.O.[Cl][Cr]([Cl])[Cl]", "note": "[chromium (Ill) chloride hexahydrate]", "values": [{"measurement": "Turbidity, Drug & Chemicals (Target Mole Ratio = 100:1, ~100 ppm for chemicals)", "setting": "[1]", "value": 15.60}, {"measurement": "Turbidity, Chemical only (~100 ppm)", "setting": "[2]", "value": 0.18}, {"measurement": "Turbidity Delta", "setting": "[3]", "value": 15.42}]}, {"compound": "CC(=O)[O-].CC(=O)[O-].[Fe+2]", "note": "[iron(ll) acetate]", "values": [{"measurement": "Turbidity, Drug & Chemicals (Target Mole Ratio = 100:1, ~100 ppm for chemicals)", "setting": "[1]", "value": 98.77}, {"measurement": "Turbidity, Chemical only (~100 ppm)", "setting": "[2]", "value": 9.66}, {"measurement": "Turbidity Delta", "setting": "[3]", "value": 89.10}]}, {"compound": "O=S(=O)([O-])[O-].[Mg+2]", "note": "[magnesium sulfate]", "values": [{"measurement": "Turbidity, Drug & Chemicals", "value": "1.53*"}, {"measurement": "impact on the turbidity of piperacillin and tazobactam", "value": "no impact"}]}, {"compound": "CC(=O)[O-].CC(=O)[O-].CC(=O)[O-].CC(=O)[O-].[Sn+4]", "note": "[tin (IV) acetate]", "values": [{"measurement": "Turbidity Delta", "value": 1.04}, {"measurement": "Turbidity, Chemical only (~100 ppm)", "value": 0.08}, {"measurement": "Turbidity, Drug & Chemicals (Target Mole Ratio = 100:1, ~100 ppm for chemicals)", "value": 1.13}]}, {"compound": "CC(=O)/C=C(/C)[O-].CC(=O)/C=C(/C)[O-].[O]=[Ti+2]", "note": "[titanium (IV) oxyacetylacetonate]", "values": [{"measurement": "Turbidity, Drug & Chemicals (Target Mole Ratio = 100:1, ~100 ppm for chemicals)", "setting": "[1]", "value": 179.33}, {"measurement": "Turbidity, Chemical only (~100 ppm)", "setting": "[2]", "value": 5.44}, {"measurement": "Turbidity Delta", "setting": "[3]", "value": 173.89}, {"measurement": "impact on the turbidity of piperacillin and tazobactam", "setting": "[4]", "value": "substantial effect"}]}, {"compound": "aluminum chloride hydrate", "values": [{"measurement": "Turbidity, Drug & Chemicals (Target Mole Ratio = 100:1, ~100 ppm for chemicals)", "setting": "[1]", "value": 3.01}, {"measurement": "Turbidity, Chemical only (~100 ppm)", "setting": "[2]", "value": 0.13}, {"measurement": "Turbidity Delta", "setting": "[3]", "value": 2.88}, {"measurement": "impact on the turbidity of piperacillin and tazobactam", "setting": "[4]", "value": "substantial effect"}]}]}
